Patent publication US11878012B2, “Compositions and methods for treating traumatic brain injury” (Board of Regents, the University of Texas System, priority 2020, dated 2024)

Tested on: seizure susceptibility
Test: PTZ kindling after sham or CCI-TBI
Conditions: M084 10 mg/kg s.c. 1 hour before each PTZ 35 mg/kg, from 7 days after surgery
Method: The fact that only a portion of TBI cases become susceptible to epileptic seizures is a yet unanswered phenomenon in both preclinical and clinical studies. Therefore, we investigated seizure susceptibility within the CCI-TBI model to gain a greater understanding as to the etiology of hyperexcitability spread occurring post-injury. […] In our seizure susceptibility paradigm, 1 or 7 days after experimental procedure, mice were challenged with a subconvulsant dose of PTZ (35 mg/kg s.c.) once-daily to elicit kindling epileptogenesis (FIG. 6A). The progression of motor seizure behavior was observed and timed by direct observation linked to EEG activity (FIG. 6B).
We wished to understand if the TRPC channel upregulation after TBI could be targeted to impede epileptogenic activity. […] Seizure susceptibility was standardized according to the latency to forelimb clonus lasting greater than 5 sec.
Controlled cortical impact traumatic brain injury. The controlled cortical impact (CCI) traumatic brain injury (TBI) model was applied, with a closed skull impact approach. The CCI model causes TBI, but the skull remains intact with minimal hematoma. This type of brain injury model most closely simulates the TBI experienced during blunt-head injuries from vehicular accidents or falls. Mice were anesthetized with isoflurane (3% induction, 1% maintenance) in 100% O2. Body temperature of 37° C. was maintained using a temperature-controlled heated surgical table. The skull was fixed with ear-bars into a stereotaxic frame. A small midline incision was made on the scalp using aseptic surgical techniques. Impact was delivered by cylindrical probe of 5 mm diameter with an Impact One neurotrauma impactor (Leica Biosystems). A calibrated impact was delivered at 4.5 m/sec to a depth of 1 mm and 0.5 sec dwell time to the right parietal cortex (−1.8 mm ML, +2.0 mm AP, −1.0 mm DV). […] The scalp was then sutured closed and mice were placed in a warming recirculation unit and monitored until fully awake and moving freely. […] For consistency, the left hemisphere of both sham and TBI mice is designated as “contralateral” brain, and the right hemisphere is referred to as “ipsilateral”, despite no impact injury occurring in sham mice.
In vivo electroencephalograms. To determine seizure frequency and record brain susceptibility to seizures, mice were implanted with electroencephalogram (EEG) electrodes 24 hr after sham or TBI. A three-channel tethered EEG system was used. The electrode pedestal (P1 Technologies) was secured to the skull with three anchored dental screws and connected to a preamplifier with gain of 25. The three leads were inserted over the left frontal cortex, left parietal cortex, and depth electrode lead into the hippocampus. The Stellate Harmonie acquisition hardware and software were used to collect coincident video and EEG activity. EEGs were inspected for presence of epileptiform spikes and seizures.
Seizure susceptibility assays. Pentylenetetrazol kindling model. Seizure susceptibility was tested with the GABAA receptor antagonist pentylenetetrazol (PTZ) for progression of motor seizure activity. Mice were injected with PTZ (35 mg/kg, s.c.) once per day and scored for motor behavioral seizures.

In the case of CCCCNc1nc2ccccc2[nH]1 [M084, N-butyl-1H-benzimidazol-2-amine], the “days to clonic seizures” value is reported as 10.6 ± 0.5 days, the “days to demonstrate myoclonic jerks” value is reported as 7.3 ± 0.6 days and the “days to tonic-clonic seizure behavior” value is reported as 11.0 ± 0.6 days.
